Measurements published in ChEMBL document CHEMBL5291721, “A preclinical secondary pharmacology resource illuminates target-adverse drug reaction associations of marketed drugs” (Nat Commun, 2023).

Columns and labels:
[1] = biological target: Bile salt export pump (Homo sapiens, UniProt O95342); format: functional
[2] = biological target: T1, Alpha-2A adrenergic receptor (Homo sapiens, UniProt P08913); format: functional, cell-based
T1 sequence (P08913 whole entry): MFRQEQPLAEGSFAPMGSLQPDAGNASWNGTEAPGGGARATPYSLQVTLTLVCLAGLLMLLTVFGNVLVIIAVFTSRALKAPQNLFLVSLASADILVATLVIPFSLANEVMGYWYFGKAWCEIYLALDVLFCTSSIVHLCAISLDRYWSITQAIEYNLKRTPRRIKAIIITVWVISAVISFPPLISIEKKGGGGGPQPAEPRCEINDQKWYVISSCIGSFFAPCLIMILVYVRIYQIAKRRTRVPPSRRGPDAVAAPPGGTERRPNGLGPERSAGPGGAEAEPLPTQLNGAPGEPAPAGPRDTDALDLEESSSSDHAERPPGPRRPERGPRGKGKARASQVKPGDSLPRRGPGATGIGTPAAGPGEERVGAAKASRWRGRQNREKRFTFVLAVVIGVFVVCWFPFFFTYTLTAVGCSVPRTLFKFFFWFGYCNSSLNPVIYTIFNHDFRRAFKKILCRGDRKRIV

[3] = biological target: T2, Cholecystokinin receptor type A (Homo sapiens, UniProt P32238)
T2 sequence (P32238 whole entry): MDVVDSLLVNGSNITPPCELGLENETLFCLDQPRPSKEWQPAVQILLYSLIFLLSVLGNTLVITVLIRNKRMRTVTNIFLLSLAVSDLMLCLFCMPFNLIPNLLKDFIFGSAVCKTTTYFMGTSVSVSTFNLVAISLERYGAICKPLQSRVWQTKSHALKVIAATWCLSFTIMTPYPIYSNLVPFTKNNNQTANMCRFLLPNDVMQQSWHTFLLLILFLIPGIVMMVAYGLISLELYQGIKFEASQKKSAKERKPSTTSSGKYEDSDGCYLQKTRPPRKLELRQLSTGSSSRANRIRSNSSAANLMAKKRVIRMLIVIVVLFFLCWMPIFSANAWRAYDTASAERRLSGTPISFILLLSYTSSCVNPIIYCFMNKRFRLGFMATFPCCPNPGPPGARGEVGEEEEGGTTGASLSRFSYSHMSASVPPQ

[4] = biological target: Growth hormone secretagogue receptor type 1 (Homo sapiens, UniProt Q92847)
Growth hormone secretagogue receptor type 1, sequence (Q92847 whole entry): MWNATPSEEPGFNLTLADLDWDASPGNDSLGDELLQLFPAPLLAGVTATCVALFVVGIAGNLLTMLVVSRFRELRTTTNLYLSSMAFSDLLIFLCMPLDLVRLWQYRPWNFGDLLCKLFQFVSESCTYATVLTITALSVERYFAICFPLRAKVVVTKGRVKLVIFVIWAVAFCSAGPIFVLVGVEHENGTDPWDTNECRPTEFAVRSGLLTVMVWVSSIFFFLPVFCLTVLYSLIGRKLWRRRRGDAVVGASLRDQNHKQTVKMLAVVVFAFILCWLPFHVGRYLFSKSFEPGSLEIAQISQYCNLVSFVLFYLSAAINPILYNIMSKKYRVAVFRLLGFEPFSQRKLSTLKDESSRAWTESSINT

[5] = biological target: 5-hydroxytryptamine receptor 2B (Homo sapiens, UniProt P41595); format: functional, cell-based
5-hydroxytryptamine receptor 2B, sequence (P41595 whole entry): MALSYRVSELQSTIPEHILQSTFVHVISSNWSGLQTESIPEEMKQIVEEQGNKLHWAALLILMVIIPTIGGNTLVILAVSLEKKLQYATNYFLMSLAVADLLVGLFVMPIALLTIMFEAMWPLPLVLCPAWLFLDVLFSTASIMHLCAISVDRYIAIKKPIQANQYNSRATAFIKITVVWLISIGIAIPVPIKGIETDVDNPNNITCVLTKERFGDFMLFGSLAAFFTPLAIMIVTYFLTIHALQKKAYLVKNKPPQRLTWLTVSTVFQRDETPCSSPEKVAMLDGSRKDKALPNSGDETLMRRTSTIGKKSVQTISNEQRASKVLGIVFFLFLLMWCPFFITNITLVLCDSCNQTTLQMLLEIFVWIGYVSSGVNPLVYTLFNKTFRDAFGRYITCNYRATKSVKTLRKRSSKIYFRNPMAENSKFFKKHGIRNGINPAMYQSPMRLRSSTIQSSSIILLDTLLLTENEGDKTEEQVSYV

[6] = biological target: T3, 5-hydroxytryptamine receptor 2C (Homo sapiens, UniProt P28335)
T3 sequence (P28335 whole entry): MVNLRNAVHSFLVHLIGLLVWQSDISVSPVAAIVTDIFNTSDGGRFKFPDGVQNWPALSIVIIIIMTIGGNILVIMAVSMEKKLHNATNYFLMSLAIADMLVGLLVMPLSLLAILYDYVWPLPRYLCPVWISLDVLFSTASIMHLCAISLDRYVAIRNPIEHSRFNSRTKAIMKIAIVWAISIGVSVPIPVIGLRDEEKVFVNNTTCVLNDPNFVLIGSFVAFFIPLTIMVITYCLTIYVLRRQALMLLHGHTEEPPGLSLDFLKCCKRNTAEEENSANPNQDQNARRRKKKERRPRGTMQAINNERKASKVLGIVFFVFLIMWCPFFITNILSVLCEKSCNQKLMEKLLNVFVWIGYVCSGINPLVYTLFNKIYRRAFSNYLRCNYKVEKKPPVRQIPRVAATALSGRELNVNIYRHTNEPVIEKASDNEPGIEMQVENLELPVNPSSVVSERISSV

[7] = biological target: Melanocortin receptor 3 (Homo sapiens, UniProt P41968)
Melanocortin receptor 3, sequence (P41968 whole entry): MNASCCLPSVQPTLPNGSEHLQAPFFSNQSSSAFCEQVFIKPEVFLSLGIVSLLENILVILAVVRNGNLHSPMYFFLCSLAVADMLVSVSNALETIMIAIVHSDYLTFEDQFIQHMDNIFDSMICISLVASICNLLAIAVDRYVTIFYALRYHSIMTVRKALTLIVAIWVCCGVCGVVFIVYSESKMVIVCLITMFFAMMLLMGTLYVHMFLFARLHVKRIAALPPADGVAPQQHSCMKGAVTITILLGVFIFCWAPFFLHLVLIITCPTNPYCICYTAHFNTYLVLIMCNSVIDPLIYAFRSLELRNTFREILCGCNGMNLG

[8] = biological target: 3',5'-cyclic-AMP phosphodiesterase 4D (Homo sapiens, UniProt Q08499); format: functional
3',5'-cyclic-AMP phosphodiesterase 4D, sequence (Q08499 whole entry): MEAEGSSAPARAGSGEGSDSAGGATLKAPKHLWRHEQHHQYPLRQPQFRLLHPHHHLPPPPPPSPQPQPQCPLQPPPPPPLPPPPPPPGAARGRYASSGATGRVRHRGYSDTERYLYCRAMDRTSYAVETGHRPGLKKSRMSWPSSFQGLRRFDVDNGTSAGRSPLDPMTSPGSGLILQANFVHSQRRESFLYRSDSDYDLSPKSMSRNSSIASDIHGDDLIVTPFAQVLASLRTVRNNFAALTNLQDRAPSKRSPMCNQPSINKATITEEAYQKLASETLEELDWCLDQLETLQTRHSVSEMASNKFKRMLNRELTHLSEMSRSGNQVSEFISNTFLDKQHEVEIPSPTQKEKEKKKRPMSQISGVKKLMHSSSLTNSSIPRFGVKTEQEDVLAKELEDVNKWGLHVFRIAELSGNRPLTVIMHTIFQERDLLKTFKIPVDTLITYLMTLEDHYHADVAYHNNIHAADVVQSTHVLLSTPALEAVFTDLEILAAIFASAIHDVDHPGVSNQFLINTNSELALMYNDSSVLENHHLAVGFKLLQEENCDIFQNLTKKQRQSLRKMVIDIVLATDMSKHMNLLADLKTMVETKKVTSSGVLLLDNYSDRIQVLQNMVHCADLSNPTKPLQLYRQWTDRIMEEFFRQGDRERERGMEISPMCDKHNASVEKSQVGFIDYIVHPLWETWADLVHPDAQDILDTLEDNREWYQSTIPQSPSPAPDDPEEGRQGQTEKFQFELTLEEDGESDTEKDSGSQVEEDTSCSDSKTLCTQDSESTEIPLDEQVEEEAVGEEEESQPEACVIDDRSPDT

[9] = biological target: T4, Prostaglandin G/H synthase 1 (Rattus norvegicus, UniProt Q63921); format: functional
T4 sequence (Q63921 whole entry): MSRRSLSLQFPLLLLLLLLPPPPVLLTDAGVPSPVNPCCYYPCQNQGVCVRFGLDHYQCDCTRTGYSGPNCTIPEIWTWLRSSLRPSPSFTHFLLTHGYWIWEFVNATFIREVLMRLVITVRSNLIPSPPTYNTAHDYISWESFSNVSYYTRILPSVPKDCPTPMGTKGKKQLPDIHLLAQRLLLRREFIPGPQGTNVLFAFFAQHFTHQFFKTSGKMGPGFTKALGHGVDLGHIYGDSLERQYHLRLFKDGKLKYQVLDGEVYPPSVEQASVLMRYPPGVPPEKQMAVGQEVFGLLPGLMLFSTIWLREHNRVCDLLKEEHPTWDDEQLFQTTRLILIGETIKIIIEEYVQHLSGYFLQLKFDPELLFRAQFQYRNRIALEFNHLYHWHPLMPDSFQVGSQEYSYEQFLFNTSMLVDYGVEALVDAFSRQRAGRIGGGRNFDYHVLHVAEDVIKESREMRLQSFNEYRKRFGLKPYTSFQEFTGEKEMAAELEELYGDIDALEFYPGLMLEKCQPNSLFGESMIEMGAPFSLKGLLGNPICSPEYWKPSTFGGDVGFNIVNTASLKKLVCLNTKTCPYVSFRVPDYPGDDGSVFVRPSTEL

[10] = biological target: Sodium-dependent noradrenaline transporter (Homo sapiens, UniProt P23975)
Sodium-dependent noradrenaline transporter, sequence (P23975 whole entry): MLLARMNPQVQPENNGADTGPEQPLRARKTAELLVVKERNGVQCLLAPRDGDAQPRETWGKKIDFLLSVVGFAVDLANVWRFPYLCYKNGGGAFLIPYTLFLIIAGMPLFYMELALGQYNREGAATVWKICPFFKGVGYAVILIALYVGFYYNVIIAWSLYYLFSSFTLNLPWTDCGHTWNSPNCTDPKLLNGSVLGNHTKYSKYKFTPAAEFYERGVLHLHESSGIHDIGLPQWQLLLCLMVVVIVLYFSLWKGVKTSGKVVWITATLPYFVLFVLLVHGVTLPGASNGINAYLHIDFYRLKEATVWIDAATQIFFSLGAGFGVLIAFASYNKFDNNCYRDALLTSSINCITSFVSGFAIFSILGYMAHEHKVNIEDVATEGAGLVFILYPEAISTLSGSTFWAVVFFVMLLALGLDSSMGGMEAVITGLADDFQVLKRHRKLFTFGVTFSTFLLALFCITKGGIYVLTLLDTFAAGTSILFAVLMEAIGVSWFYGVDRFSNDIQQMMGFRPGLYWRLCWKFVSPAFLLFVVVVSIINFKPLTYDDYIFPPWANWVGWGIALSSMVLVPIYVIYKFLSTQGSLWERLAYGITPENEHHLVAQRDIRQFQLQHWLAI

[11] = biological target: T5, Amine oxidase [flavin-containing] A (Homo sapiens, UniProt P21397); format: functional
T5 sequence (P21397 whole entry): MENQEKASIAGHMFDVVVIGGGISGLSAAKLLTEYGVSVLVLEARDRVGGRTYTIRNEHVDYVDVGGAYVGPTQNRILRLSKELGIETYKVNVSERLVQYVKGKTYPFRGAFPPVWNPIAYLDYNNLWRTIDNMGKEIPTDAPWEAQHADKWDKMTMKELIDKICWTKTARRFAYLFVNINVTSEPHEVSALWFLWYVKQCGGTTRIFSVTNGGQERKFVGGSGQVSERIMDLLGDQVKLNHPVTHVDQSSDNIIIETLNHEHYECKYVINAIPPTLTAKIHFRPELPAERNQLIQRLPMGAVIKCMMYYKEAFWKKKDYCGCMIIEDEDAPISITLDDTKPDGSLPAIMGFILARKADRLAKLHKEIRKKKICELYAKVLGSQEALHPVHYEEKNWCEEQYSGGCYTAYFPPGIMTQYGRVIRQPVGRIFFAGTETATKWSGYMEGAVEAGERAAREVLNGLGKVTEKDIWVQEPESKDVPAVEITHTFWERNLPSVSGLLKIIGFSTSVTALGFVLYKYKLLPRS

[12] = biological target: cGMP-inhibited 3',5'-cyclic phosphodiesterase 3A (Homo sapiens, UniProt Q14432); format: functional
cGMP-inhibited 3',5'-cyclic phosphodiesterase 3A, sequence (Q14432 whole entry): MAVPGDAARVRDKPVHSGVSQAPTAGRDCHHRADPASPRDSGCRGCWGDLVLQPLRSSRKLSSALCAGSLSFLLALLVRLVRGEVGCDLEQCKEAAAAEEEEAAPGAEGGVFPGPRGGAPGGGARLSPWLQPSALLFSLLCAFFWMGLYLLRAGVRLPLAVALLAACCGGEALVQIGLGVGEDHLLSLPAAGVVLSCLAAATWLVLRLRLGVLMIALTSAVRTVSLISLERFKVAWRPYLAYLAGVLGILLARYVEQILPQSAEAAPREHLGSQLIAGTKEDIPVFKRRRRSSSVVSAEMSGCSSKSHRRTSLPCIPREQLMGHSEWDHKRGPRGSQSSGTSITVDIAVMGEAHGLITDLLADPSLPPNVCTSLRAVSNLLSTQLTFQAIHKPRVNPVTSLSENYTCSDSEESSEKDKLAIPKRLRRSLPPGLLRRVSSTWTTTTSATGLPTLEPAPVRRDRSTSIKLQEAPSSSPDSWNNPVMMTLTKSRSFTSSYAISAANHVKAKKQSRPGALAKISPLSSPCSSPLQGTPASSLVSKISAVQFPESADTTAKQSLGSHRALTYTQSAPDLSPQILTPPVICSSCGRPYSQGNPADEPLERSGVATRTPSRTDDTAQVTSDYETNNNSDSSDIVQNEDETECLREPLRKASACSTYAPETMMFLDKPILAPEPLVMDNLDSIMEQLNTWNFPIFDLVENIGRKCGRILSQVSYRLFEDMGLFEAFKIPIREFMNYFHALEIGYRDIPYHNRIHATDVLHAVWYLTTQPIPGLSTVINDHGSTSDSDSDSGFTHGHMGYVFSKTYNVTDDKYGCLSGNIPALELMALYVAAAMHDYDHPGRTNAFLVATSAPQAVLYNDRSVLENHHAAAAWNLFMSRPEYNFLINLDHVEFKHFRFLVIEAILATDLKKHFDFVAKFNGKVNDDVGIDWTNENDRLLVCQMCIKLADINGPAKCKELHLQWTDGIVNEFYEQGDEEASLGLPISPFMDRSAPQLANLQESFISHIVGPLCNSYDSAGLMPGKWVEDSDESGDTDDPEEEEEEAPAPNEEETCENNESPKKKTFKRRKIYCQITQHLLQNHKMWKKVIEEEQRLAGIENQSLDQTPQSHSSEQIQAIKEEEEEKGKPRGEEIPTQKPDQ
Further: assay procedure not described here.

Bile salt export pump, sequence (O95342 whole entry): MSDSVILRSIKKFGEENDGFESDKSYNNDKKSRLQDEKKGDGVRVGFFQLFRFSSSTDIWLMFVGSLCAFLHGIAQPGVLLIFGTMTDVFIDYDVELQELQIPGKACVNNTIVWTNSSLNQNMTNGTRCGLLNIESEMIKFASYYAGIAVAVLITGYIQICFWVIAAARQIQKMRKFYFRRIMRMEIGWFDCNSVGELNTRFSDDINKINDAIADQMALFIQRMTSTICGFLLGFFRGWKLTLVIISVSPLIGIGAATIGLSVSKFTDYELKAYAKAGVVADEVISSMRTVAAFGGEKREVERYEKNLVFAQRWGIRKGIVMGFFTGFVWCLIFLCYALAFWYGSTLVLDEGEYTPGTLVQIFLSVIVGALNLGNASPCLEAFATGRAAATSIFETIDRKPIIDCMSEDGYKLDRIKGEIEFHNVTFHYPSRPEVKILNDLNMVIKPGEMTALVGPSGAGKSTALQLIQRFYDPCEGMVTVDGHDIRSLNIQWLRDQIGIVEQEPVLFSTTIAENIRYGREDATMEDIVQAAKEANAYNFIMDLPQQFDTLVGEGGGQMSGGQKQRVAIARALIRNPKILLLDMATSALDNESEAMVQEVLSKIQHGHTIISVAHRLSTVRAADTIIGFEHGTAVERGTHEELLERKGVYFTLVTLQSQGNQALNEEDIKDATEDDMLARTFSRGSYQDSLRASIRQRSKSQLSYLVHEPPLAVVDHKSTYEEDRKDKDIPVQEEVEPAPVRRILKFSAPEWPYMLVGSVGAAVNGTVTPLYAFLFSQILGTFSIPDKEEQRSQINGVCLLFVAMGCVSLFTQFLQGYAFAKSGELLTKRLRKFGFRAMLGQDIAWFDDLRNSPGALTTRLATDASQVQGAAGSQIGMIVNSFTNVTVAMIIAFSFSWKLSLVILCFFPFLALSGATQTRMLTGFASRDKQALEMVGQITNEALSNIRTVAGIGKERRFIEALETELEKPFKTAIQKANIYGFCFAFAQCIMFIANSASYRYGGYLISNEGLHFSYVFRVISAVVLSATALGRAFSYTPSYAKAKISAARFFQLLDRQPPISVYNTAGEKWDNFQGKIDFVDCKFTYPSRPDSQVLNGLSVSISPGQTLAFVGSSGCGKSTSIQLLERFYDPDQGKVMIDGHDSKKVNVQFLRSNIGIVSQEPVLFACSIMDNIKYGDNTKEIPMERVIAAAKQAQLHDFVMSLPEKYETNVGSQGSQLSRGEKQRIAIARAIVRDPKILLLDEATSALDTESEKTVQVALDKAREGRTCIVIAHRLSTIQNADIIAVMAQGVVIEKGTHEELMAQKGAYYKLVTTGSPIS

AC50 [1]	AC50 [2]	AC50 [3]	AC50 [4]	AC50 [5]	AC50 [6]	AC50 [7]	AC50 [8]	AC50 [9]	AC50 [10]	AC50 [11]	AC50 [12]	SMILES
> 300 µM	> 10 µM	> 10 µM	> 10 µM	> 10 µM	> 30 µM	> 10 µM	> 30 µM	> 10 µM	> 10 µM	> 10 µM	> 30 µM	NC[C@H]1CC[C@H](C(=O)O)CC1 [TRANEXAMIC ACID]
37 µM	> 30 µM	> 30 µM	> 30 µM	> 30 µM	> 30 µM	> 30 µM	> 30 µM	> 30 µM	> 30 µM	> 30 µM	> 30 µM	CCCS(=O)(=O)Nc1ccc(F)c(C(=O)c2c[nH]c3ncc(-c4ccc(Cl)cc4)cc23)c1F [VEMURAFENIB]
44 µM	> 30 µM	> 30 µM	13 µM	> 30 µM	> 30 µM	26 µM	18 µM	> 30 µM	23 µM	> 30 µM	> 30 µM	OCc1cc([C@@H](O)CNCCCCCCOCCOCc2c(Cl)cccc2Cl)ccc1O [VILANTEROL]
> 300 µM	> 30 µM	> 30 µM	> 30 µM	> 30 µM	> 30 µM	> 30 µM	> 30 µM	> 30 µM	> 30 µM	> 30 µM	> 30 µM	O=C(CCCCCCC(=O)Nc1ccccc1)NO [VORINOSTAT]
